Test results from patent US20250288652A1, “BACTERIOPHAGE LYSINE, CHIMERA THEREOF AND APPLICATION THEREOF” (priority 2021, published 2025).
Where “and” joins values, the source holds several entries; their conditions need not be identical. Equal entries are not always repeated.

Tests used:
Format in all cases: cell-based
Propionibacterium acnes [1] = assay: MIC of selected lysin after single-step purification, Example 8; conditions: single-step purified lysin
Method: Express PACL 10, 390, 391, 392, 403 and 404 according to the method of Examples 1-4, and perform the following single-step purification: put Escherichia coli BL21 (DE3) containing each recombinant expression plasmid in the self-induction medium incubate at 37° C., 300 rpm for 3 hours, then at 18° C., 300 rpm for 16-18 hours. Cells were collected by centrifugation and lysed by homogenizatoin under high pressure. Clarified lysate from 1 L of E. coli culture medium expressing the protein of interest was loaded onto a 26 mm/200 mm column containing 70 mL of purification resin. The lysin was purified according to the conditions in Table 8-1, and the purity determination of the lyase after single-step purification is shown in FIG. 5. These lysin are used to determine the minimal inhibitory concentration (MIC).
The minimal inhibitory concentration (MIC) determination method is as follows. Propionibacterium acnes is streaked on Fortified Clostridium Agar (Fortified Clostridium Medium RCM with 1.5% agar, RCM was prepared according to the revised recipe, per liter—10 g acid hydrolyzed casein, 10 g beef extract, 3 g yeast extract, 5 g D—glucose, 5 g sodium chloride, 3 g sodium acetate, 0.5 g L-cysteine hydrochloride). Plates were incubated anaerobically at 37° C. for 72 hours. The inoculum for MIC determination was first prepared by resuspending single clones from RCA in 0.9% saline to an OD600 of 0.05, corresponding to 10^7 colony-forming units per milliliter (cfu/mL). The suspension was diluted 20-fold in RCM to an inoculum of 5*10^5 cfu/mL. Two-fold serial dilutions of each lyase were prepared in 0.9% saline and added not to exceed one-tenth of the total culture volume. Cultures were grown anaerobically at 37° C. for 48-72 hours. The MIC is the lowest concentration of lyase at which no growth of P. acnes can be observed with the naked eye.

Propionibacterium acnes [2] = assay: Minimum bactericidal concentration (MBC) determination, Example 6; conditions: Cutibacterium acnes
Method: (§1) The minimal inhibitory concentration (MIC) determination method is as follows. First prepare a colony suspension in 0.9% saline to an OD600 of 0.05 to prepare an inoculum, which corresponds to 10^7 colony-forming units per mL (cfu/mL). The suspension was diluted 20 times in agar-free enhanced Clostridium medium (RCM) to an inoculum of 5*10^5 cfu/mL. Prepare 2-fold serial dilutions of PACL10 or vancomycin with 0.9% saline and add no more than one-tenth of the total culture. Cultures were grown anaerobically at 37° C. for 3 days. The MIC is the lowest concentration of PACL10 or vancomycin at which no growth of P. acnes can be observed with the naked eye. The minimum bactericidal concentration (MBC) was determined by subculturing the above cultures on enhanced Clostridium agar (RCA) plates containing 0.1% Tween-80. MBC is the lowest concentration of PACL10 or vancomycin at which no P. acnes colonies are seen on the enhanced Clostridium agar (RCA) plate.

Propionibacterium acnes [3] = assay: Minimum inhibitory concentration (MIC) determination, Example 6; conditions: Cutibacterium acnes
Method: as §1

For `CN(C)[C@@H]1C(O)=C(C(N)=O)C(=O)[C@@]2(O)C(O)=C3C(=O)c4c(O)cccc4[C@@](C)(O)[C@H]3C[C@@H]12` [Tetracycline, reference compound], the MIC (Propionibacterium acnes [1]; Cutibacterium acnes, clade IA2, strain 33, read-out: MIC of selected lyases relative to Propionibacterium acnes) was 8 µg/mL, the “MIC of selected lyases relative to Propionibacterium acnes” value (Propionibacterium acnes [1]; clade IA1, strain 1) was 8 µg/mL and the “MIC of selected lyases relative to Propionibacterium acnes” value (Propionibacterium acnes [1]; clade IA1, strain 5) was 8 µg/mL. For the same molecule, the “MIC of selected lyases relative to Propionibacterium acnes” value (Propionibacterium acnes [1]; clade IA1, strain 7) was 8 µg/mL, the “MIC of selected lyases relative to Propionibacterium acnes” value (Propionibacterium acnes [1]; clade IA2, strain 10) was 8 µg/mL and the “MIC of selected lyases relative to Propionibacterium acnes” value (Propionibacterium acnes [1]; clade IA2, strain 17) was 8 µg/mL. The “MIC of selected lyases relative to Propionibacterium acnes” value (Propionibacterium acnes [1]; clade II, strain 34) was 8 µg/mL.

With `CN[C@H](CC(C)C)C(=O)N[C@H]1C(=O)N[C@@H](CC(N)=O)C(=O)N[C@H]2C(=O)N[C@H]3C(=O)N[C@H](C(=O)N[C@H](C(=O)O)c4cc(O)cc(O)c4-c4cc3ccc4O)[C@H](O)c3ccc(c(Cl)c3)Oc3cc2cc(c3O[C@@H]2O[C@H](CO)[C@@H](O)[C@H](O)[C@H]2O[C@H]2C[C@](C)(N)[C@H](O)[C@H](C)O2)Oc2ccc(cc2Cl)[C@H]1O` [Vancomycin, reference compound] the MBC (Propionibacterium acnes [2]; clade IA1, strain 1) was 0.5 µg/mL and 0.337 µM, the MBC (Propionibacterium acnes [2]; clade IA1, strain 5) was 1 µg/mL and 0.673 µM and the MBC (Propionibacterium acnes [2]; clade IA1, strain 7) was 1 µg/mL and 0.673 µM. The MBC (Propionibacterium acnes [2]; clade IA1, strain 15) was 1 µg/mL and 0.673 µM, the MBC (Propionibacterium acnes [2]; clade IA1, strain 27) was 1 µg/mL and 0.673 µM and the MBC (Propionibacterium acnes [2]; clade IA2, strain 10) was 1 µg/mL and 0.673 µM. The MBC (Propionibacterium acnes [2]; clade IA2, strain 14) was 1 µg/mL and 0.673 µM, the MBC (Propionibacterium acnes [2]; clade IA2, strain 17) was 0.5 µg/mL and 0.337 µM and the MBC (Propionibacterium acnes [2]; clade IA2, strain 31) was 0.5 µg/mL and 0.337 µM. For the same molecule, the MBC (Propionibacterium acnes [2]; clade IA2, strain 33A) was 1 µg/mL and 0.673 µM, the MBC (Propionibacterium acnes [2]; clade IB, strain 13) was 1 µg/mL and 0.673 µM and the MBC (Propionibacterium acnes [2]; clade II, strain 34A) was 0.5 µg/mL and 0.337 µM. For the same molecule, the MIC (Propionibacterium acnes [3]; clade IA1, strain 1) was 0.5 µg/mL and 0.337 µM, the MIC (Propionibacterium acnes [3]; clade IA1, strain 5) was 1 µg/mL and 0.673 µM and the MIC (Propionibacterium acnes [3]; clade IA1, strain 7) was 0.5 µg/mL and 0.337 µM. For the same molecule, the MIC (Propionibacterium acnes [3]; clade IA1, strain 15) was 1 µg/mL and 0.673 µM, the MIC (Propionibacterium acnes [3]; clade IA1, strain 27) was 1 µg/mL and 0.673 µM and the MIC (Propionibacterium acnes [3]; clade IA2, strain 10) was 0.5 µg/mL and 0.337 µM. The MIC (Propionibacterium acnes [3]; clade IA2, strain 14) was 0.5 µg/mL and 0.337 µM, the MIC (Propionibacterium acnes [3]; clade IA2, strain 17) was 0.5 µg/mL and 0.337 µM and the MIC (Propionibacterium acnes [3]; clade IA2, strain 31) was 0.5 µg/mL and 0.337 µM. For the same molecule, the MIC (Propionibacterium acnes [3]; clade IA2, strain 33A) was 0.5 µg/mL and 0.337 µM, the MIC (Propionibacterium acnes [3]; clade IB, strain 13) was 1 µg/mL and 0.673 µM and the MIC (Propionibacterium acnes [3]; clade II, strain 34A) was 0.5 µg/mL and 0.337 µM.

B1: PACL390: chimeric lysin, amino acid sequence SEQ ID NO: 258 (protein)
chain: MTFIQAAHHSSGSNLPPTRVVIHATCPEMGFPKASAKGRAVSTARYFQSASSGGSAHYVVDIGETVQCLGENVIAWHAPPNAHSLGIEICADGGSATSFSNPKVRYTRAQWLSPQVWPAVLRAAALTRKMCSKYGIPVVKLSASDLKAGKKGICGHVDVSNAFHQSDHDDPGPDFPWAEFMAAVKGGPGQQDTKPSVPTPSLTEIGDQDMNGCYYNLNSKTRTYLIFDSRSGFYHEFSQGNGNGPMSPDYVNPIAKGWDTGSWPAISPGHAKVLKAALDKVRKGI
modifications: PACL390
B1 was tested, and the “MIC of selected lyases relative to Propionibacterium acnes” value (Propionibacterium acnes [1]; clade IA1, strain 1) was 8 µg/mL, the “MIC of selected lyases relative to Propionibacterium acnes” value (Propionibacterium acnes [1]; clade IA1, strain 5) was 8 µg/mL and the “MIC of selected lyases relative to Propionibacterium acnes” value (Propionibacterium acnes [1]; clade IA1, strain 7) was 8 µg/mL. The “MIC of selected lyases relative to Propionibacterium acnes” value (Propionibacterium acnes [1]; clade IA2, strain 10) was 8 µg/mL, the “MIC of selected lyases relative to Propionibacterium acnes” value (Propionibacterium acnes [1]; clade IA2, strain 17) was 8 µg/mL and the “MIC of selected lyases relative to Propionibacterium acnes” value (Propionibacterium acnes [1]; clade IA2, strain 33) was 8 µg/mL. For the same molecule, the “MIC of selected lyases relative to Propionibacterium acnes” value (Propionibacterium acnes [1]; clade II, strain 34) was 8 µg/mL.

B2: PACL392: chimeric lysin, amino acid sequence SEQ ID NO: 260 (protein)
chain: MTFIQAAHHSSGSNLPPTRVVIHATCPELGFPRASAKGRAVSTARYFQSAISGGSAHYVVDVGETVQCLAEDVIAWHAPPNSRSLGIEICADGGSATSFKNPNVRYSRAQWLSPQVWPAVLRAAALTRQMCQKYGIPVTKLSASDLKAGKKGICGHVDVSNAWHQSDHDDPGPDFPWAEFMAAVKGGATNPGGPGQQDTKPSVPTPSLTEIGDQDMNGCYYNLNSKTRTYLIFDSRSGFYHEFSQGNGNGPMSPDYVNPIAKGWDTGSWPAISPGHAKVLKAALDKVRKGI
modifications: PACL392
In the case of B2, the “MIC of selected lyases relative to Propionibacterium acnes” value (Propionibacterium acnes [1]; clade IA1, strain 1) is reported as 8 µg/mL, the “MIC of selected lyases relative to Propionibacterium acnes” value (Propionibacterium acnes [1]; clade IA1, strain 5) is reported as 8 µg/mL and the “MIC of selected lyases relative to Propionibacterium acnes” value (Propionibacterium acnes [1]; clade IA1, strain 7) is reported as 8 µg/mL. The “MIC of selected lyases relative to Propionibacterium acnes” value (Propionibacterium acnes [1]; clade IA2, strain 10) was 16 µg/mL, the “MIC of selected lyases relative to Propionibacterium acnes” value (Propionibacterium acnes [1]; clade IA2, strain 17) was 16 µg/mL and the “MIC of selected lyases relative to Propionibacterium acnes” value (Propionibacterium acnes [1]; clade IA2, strain 33) was 8 µg/mL. The “MIC of selected lyases relative to Propionibacterium acnes” value (Propionibacterium acnes [1]; clade II, strain 34) was 8 µg/mL.

B3: PACL391: chimeric lysin, amino acid sequence SEQ ID NO: 259 (protein)
chain: MTFIQAAHHSSGSNLPPTRVVIHATCPELGFPRASAKGRAVSTARYFQSAISGGSAHYVVDVGETVQCLAEDVIAWHAPPNSRSLGIEICADGGSATSFKNPNVRYSRAQWLSPQVWPAVLRAAALTRQMCQKYGIPVTKLSASDLKAGKKGICGHVDVSNAWHQSDHDDPGPDFPWAEFMAAVKGGATNPGGEVRTPGQQDTKPSVPTPSLTEIGDQDMNGCYYNLNSKTRTYLIFDSRSGFYHEFSQGNGNGPMSPDYVNPIAKGWDTGSWPAISPGHAKVLKAALDKVRKGI
modifications: PACL391
With B3 the “MIC of selected lyases relative to Propionibacterium acnes” value (Propionibacterium acnes [1]; clade IA1, strain 1) was 8 µg/mL, the “MIC of selected lyases relative to Propionibacterium acnes” value (Propionibacterium acnes [1]; clade IA1, strain 5) was 16 µg/mL and the “MIC of selected lyases relative to Propionibacterium acnes” value (Propionibacterium acnes [1]; clade IA1, strain 7) was 8 µg/mL. The “MIC of selected lyases relative to Propionibacterium acnes” value (Propionibacterium acnes [1]; clade IA2, strain 10) was 32 µg/mL, the “MIC of selected lyases relative to Propionibacterium acnes” value (Propionibacterium acnes [1]; clade IA2, strain 17) was 32 µg/mL and the “MIC of selected lyases relative to Propionibacterium acnes” value (Propionibacterium acnes [1]; clade IA2, strain 33) was 16 µg/mL. The “MIC of selected lyases relative to Propionibacterium acnes” value (Propionibacterium acnes [1]; clade II, strain 34) was 8 µg/mL.

B4: PACL404: chimeric lysin, amino acid sequence SEQ ID NO: 272 (protein)
chain: MTFIQAAHHSSGSNLPPTRVVIHATCPEMGFPKASAKGRAVSTARYFQSASSGGSAHYVVDIGETVQCLGENVIAWHAPPNAHSLGIEICADGGSATSFSNPKVRYTRAQWLSPQVWPAVLRAAALTRKMCSKYGIPVVKLSASDLKAGKKGICGHVDVSNAFHQSDHDDPGPDFPWAEFMAAVKGGTTTQEDEDEMKEAGGPGQQDTKPSVPTPSLTEIGDQDMNGCYYNLNSKTRTYLIFDSRSGFYHEFSQGNGNGPMSPDYVNPIAKGWDTGSWPAISPGHAKVLKAALDKVRKGI
modifications: PACL404
In the case of B4, the “MIC of selected lyases relative to Propionibacterium acnes” value (Propionibacterium acnes [1]; clade IA1, strain 1) is reported as 8 µg/mL, the “MIC of selected lyases relative to Propionibacterium acnes” value (Propionibacterium acnes [1]; clade IA1, strain 5) is reported as 16 µg/mL and the “MIC of selected lyases relative to Propionibacterium acnes” value (Propionibacterium acnes [1]; clade IA1, strain 7) is reported as 16 µg/mL. The “MIC of selected lyases relative to Propionibacterium acnes” value (Propionibacterium acnes [1]; clade IA2, strain 10) was 16 µg/mL, the “MIC of selected lyases relative to Propionibacterium acnes” value (Propionibacterium acnes [1]; clade IA2, strain 17) was 8 µg/mL and the “MIC of selected lyases relative to Propionibacterium acnes” value (Propionibacterium acnes [1]; clade IA2, strain 33) was 8 µg/mL. The “MIC of selected lyases relative to Propionibacterium acnes” value (Propionibacterium acnes [1]; clade II, strain 34) was 8 µg/mL.
